Reference: article PMC8918352, “Structure and activity of the DHNA Coenzyme-A Thioesterase from Staphylococcus aureus providing insights for innovative drug development” (Scientific Reports, 2022)

Key:
HpYbgC = details: in contrast to EcYbgC and HiYbgC; ref [38]; cited from earlier work
Description: In fact, we observed the presence of a long tunnel associated with the binding site of the acyl moiety of the substrate for HpYbgC, which is ...

[1] = test system: SaDHNA WT (DHNA Coenzyme-A thioesterase); assay: Thioesterase activity of SaDHNA wild type (DTNB/TNB, 412 nm); format: biochemical, Staphylococcus aureus
Protocol: (§1) To obtain some initial information about SaDHNA thioesterase substrate specificity, two different substrates classified according to their CoA chain length and unsaturation degree were assessed. The longest acyl-CoA chain substrate contained eighteen acyl saturated chain stearoyl-CoA (C18:0), while the shortest chain contained four acyl chain crotonyl-CoA with one unsaturation (C4:1). Thioesterase activity was observed by the increase in free thiol-CoA thioester hydrolysis formation of the 2-nitro-5-thiobenzoate anion (TNB^2−), resulting from the reaction of the thiolate anion (RS^−) with Ellman’s reagent (DTNB^2−) and one mixed disulphide (R-S-TNB^−). […]
(§2) The thioesterase activity of SaDHNA was measured according to a protocol of Rodríguez-Guilbe and co-workers[36]. In a ELISA microplate the formation of 2-nitro-5-thiobenzoate anion (TNB2-) by the reaction of thiolate anion (RS^−) with Ellman′s reagent (DTNB^2−) and one mixed disulphide (R-S-TNB^−) catalysed by purified SaDHNA wild type (WT), D16A and E31N was followed by monitoring the change in absorbance of thionitrobenzoic acid (TNB) at 412 nm (extinction coefficient of 13.600 M^−1 cm^−1) using a TECAN GENios plate reader (XFLUOR4 Version: V 4.40, MTX Lab Systems, Inc, USA). […] In addition, uncatalyzed reaction rates were monitored by the combination of same reagents without the enzyme. […]

SaDHNA E31N = assay: Thioesterase activity of SaDHNA E31N mutant (DTNB/TNB, 412 nm); format: biochemical, Staphylococcus aureus; details: stearoyl-CoA as substrate, vs background level
Protocol: as §1, §2

SaDHNA D16A = assay: Thioesterase activity of SaDHNA D16A mutant (DTNB/TNB, 412 nm); format: biochemical, Staphylococcus aureus
Protocol: as §1, §2

SaDHNA thioesterase = assay: Inhibition of SaDHNA thioesterase activity by peptides; format: biochemical, Staphylococcus aureus; details: 100 µM peptide, 10 µM SaDHNA, 50 mM HEPES-K+ pH 7.5, 1 mM DTNB, room temperature, 412 nm; in comparison to control assay without peptides; triplicates
Description: According to the docking analysis, the protein-peptide complex is mediated mainly through six hydrogen bonds formed between Pep-1 and residues present in the putative active site. The benzoyl ring of the tyrosine of Pep-1 has non-covalent π-stacking interactions with the Try45 benzoyl ring of the SaDHNA structure, as well as with the side chain of Ser55 through a hydrogen bond. The residues important for the substrate binding and activity, Glu31 and Asp16, respectively, are predicted to interact with the amide of the peptide backbone and with the side chain of serine of the peptide via hydrogen bonds as well. […]
The thioesterase activity of SaDHNA was measured according to a protocol of Rodríguez-Guilbe and co-workers[36]. In a ELISA microplate the formation of 2-nitro-5-thiobenzoate anion (TNB2-) by the reaction of thiolate anion (RS^−) with Ellman′s reagent (DTNB^2−) and one mixed disulphide (R-S-TNB^−) catalysed by purified SaDHNA wild type (WT), D16A and E31N was followed by monitoring the change in absorbance of thionitrobenzoic acid (TNB) at 412 nm (extinction coefficient of 13.600 M^−1 cm^−1) using a TECAN GENios plate reader (XFLUOR4 Version: V 4.40, MTX Lab Systems, Inc, USA). […] In addition, uncatalyzed reaction rates were monitored by the combination of same reagents without the enzyme.

SaDHNA = assay: Intrinsic (tryptophan) fluorescence quenching of SaDHNA by peptides, Stern–Volmer analysis; format: binding, Staphylococcus aureus; details: for bimolecular quenching constant (Kq) / shift of SaDHNA emission spectra maximum / fluorescence intensity of SaDHNA: 60 nM SaDHNA; for bimolecular quenching constant (Kq): 100 mM sodium phosphate pH 6.0, 150 mM NaCl, 22 °C, excitation 290 nm, emission 300–420 nm, peptide 60–1000 nM, from second, slower quenching step, five assays; for shift of SaDHNA emission spectra maximum / fluorescence intensity of SaDHNA: peptide up to 1000 nM, pH 6.0, 22 °C; for shift of SaDHNA emission spectra maximum: maximum emission near 340 nm; for quenching mechanism: from Kq above diffusive limit, complex association between SaDHNA and peptides
Protocol: Fluorescence spectroscopy was employed to analyse the inhibition of SaDHNA by the aforementioned peptides. The intrinsic fluorescence quenching was assessed for a gradient concentration of Pep-1 and Pep-2. The emission spectra of SaDHNA in buffer only and SaDHNA quenched with different concentrations of Pep-1 and Pep-2 are shown in Fig. 5a,b, respectively. The amino acid sequence of SaDHNA has three tryptophan residues, W29, W79 and W129 and a corresponding maximum emission near 340 nm. […] According to the quenching theory this may indicate a decrease in the lifetime of the excited state, corresponding to an additional rate process that depopulates the excited state and/or the formation of a non-radioactive ground state between the fluorophore and the quencher resulting in a non-fluorescence emission[25],[26].
The Stern–Volmer theory explains the relationship between fluorescence intensity and the presence of a quencher. The data obtained with different concentrations of peptides were analysed independently of the quenching process. Thereby the bimolecular quenching constant (Kq) assigned to the efficiency of quenching and the binding or affinity constant (Ka) for the associated complex were calculated[27],[28]. […] To investigate the quenching process and to estimate Kq and Ka the data from the second and slower step were considered (Fig. 6b,c, respectively). To estimate the bimolecular quenching constant (Kq), the Stern–Volmer quenching constant (Ksv) was determined from the slopes of Io/I versus Q (quencher concentration) (Fig. 6b) and […], which corresponds approximately to the lifetime of a biomolecule fluorophore in the absence of a quenching agent. Therefore, Kq [M^−1 s^−1] for Pep-1 and Pep-2 were 13.3 × 10^12 ± 0.6 × 10^12 and 9.3 × 10^12 ± 1.8 × 10^12, respectively. According to the diffusion controlled quenching theory Kq values close to 1 × 10 ^10 M^−1 s^−1 are associated with a process involving dynamic quenchers, whereas values of Kq larger than the diffusive limit indicate binding interactions between the fluorophore and the quencher.
As the estimated Kq presented higher values than expected for dynamic quenching, we analysed the data applying static quenching theory to estimate the affinity constant Ka for the associated complex. The intercept of log ((Io-I)/I) versus log Q plot (Fig. 6c) is equal to the logarithm of Ka.. Thereby the intercept antilog calculation determines the Ka values for both peptides.
Fluorescence measurements were performed using a Cary eclipse fluorescence spectrophotometer coupled with a peltier temperature control (Agilent, USA). All assays were carried out in 1 mL cuvettes at 22 °C with excitation/emission slits at 20 nm each. The applied excitation wavelength was 290 nm and emission spectra were collected in the range of 300 up to 420 nm in increments of 1 nm. SaDHNA quenching experiments were performed with two peptides (Pep-1: YGSDGR and Pep-2: EGEYE, using a concentration range from 60 up to 1000 nM. SaDHNA at a concentration of 60 nM in 100 mM sodium phosphate buffer pH 6.0, 150 mM NaCl was applied and small volumes of the stock peptide solution were sequentially added to the cuvette for quenching analysis. Each SaDHNA-peptide assay was performed five times. As a control the fluorescence of all buffer and all peptide solutions were measured to correct the observed fluorescence accordingly. The quenching process was assessed by the Stern–Volmer theory.

[2] = target: 1,4-dihydroxy-2-naphthoyl coenzyme A thioesterase from S. aureus (S. aureus); assay: crystal structure; space group P2_(1), four molecules in the asymmetric unit; crystals from 100 mM HEPES-Na+ pH 7.0, 1.0 M lithium sulphate, 293 K; 1.3 Å
[3] = target: 1,4-dihydroxy-2-naphthoyl coenzyme A thioesterase from S. aureus (S. aureus); assay: DLS + SAXS; SaDHNA at 0.8 to 2.5 mg/ml in 100 mM sodium phosphate buffer pH 6.0, 150 mM NaCl, 10 °C; ab initio model with GASBOR
[4] = target: 1,4-dihydroxy-2-naphthoyl coenzyme A thioesterase from S. aureus (S. aureus); assay: other fluorescence titration; quenching of the intrinsic tryptophan fluorescence of 60 nM SaDHNA by peptide added from 60 up to 1000 nM; 100 mM sodium phosphate buffer pH 6.0, 150 mM NaCl, 22 °C; excitation 290 nm; Stern-Volmer and static quenching analysis of the second, slower quenching step

CCCCCCCCCCCCCCCCCC(=O)SCCNC(=O)CCNC(=O)[C@H](O)C(C)(C)COP(=O)(O)OP(=O)(O)OC[C@H]1O[C@@H](n2cnc3c(N)ncnc32)[C@H](O)[C@@H]1OP(=O)(O)O [Stearoyl-CoA (C18:0), stearoyl-CoA]
activity of HpYbgC towards long acyl chains (HpYbgC): more active
higher specific activity toward the extended acyl CoA chain in comparison to the short chain crotonyl-CoA ([1]; stearoyl-CoA vs crotonyl-CoA): 474 fold
activity of E31N mutant toward stearoyl-CoA (in words) (SaDHNA E31N): no activity was detected above the background level
Enzymatic activity (specific activity) (SaDHNA D16A; D16A mutant, 10 μM enzyme, 50 mM HEPES-K+ pH 7.5, 1 mM DTNB, room temperature, 412 nm, 100 μM stearoyl-CoA, triplicates): 0.43 ± 0.02 nmol TNB/min/mg protein
decrease of hydrolysis rate of stearoyl-CoA by the D16A mutant (SaDHNA D16A; D16A vs WT, stearoyl-CoA as substrate): 300 fold

EGEYE [Pep-2]
SaDHNA thioesterase activity in presence of peptide (in words) (SaDHNA thioesterase): no detectable activity
bimolecular quenching constant (Kq) (SaDHNA): 9.3e+12 ± 1.8e+12 M⁻¹ s⁻¹
shift of SaDHNA emission spectra maximum (SaDHNA): slight blue shift of the emission
fluorescence intensity of SaDHNA (SaDHNA): decrease in the fluorescence intensity
quenching mechanism (SaDHNA): static mechanism

1,4-dihydroxy-2-naphthoyl coenzyme A thioesterase from S. aureus
stoichiometry N [2]: 4
stoichiometry N [3]: 4

YGSDGR [Pep-1]
SaDHNA thioesterase activity in presence of peptide (in words) (SaDHNA thioesterase): no detectable activity
bimolecular quenching constant (Kq) (SaDHNA): 1.33e+13 ± 6e+11 M⁻¹ s⁻¹
shift of SaDHNA emission spectra maximum (SaDHNA): did not shift the emission spectra maximum
fluorescence intensity of SaDHNA (SaDHNA): decrease in the fluorescence intensity
quenching mechanism (SaDHNA): static mechanism
higher binding affinity to SaDHNA than Pep-2 (SaDHNA; ratio of Ka, Pep-1 vs Pep-2): 21 fold

C/C=C/C(=O)SCCNC(=O)CCNC(=O)[C@H](O)C(C)(C)COP(=O)(O)OP(=O)(O)OC[C@H]1O[C@@H](n2cnc3c(N)ncnc32)[C@H](O)[C@@H]1OP(=O)(O)O [Crotonyl-CoA (C4:1), crotonyl-CoA]
Enzymatic activity (specific activity) ([1]; 10 μM enzyme, 50 mM HEPES-K+ pH 7.5, 1 mM DTNB, room temperature, 200 μl, absorbance 412 nm, 100 μM stearoyl-CoA or 1 mM crotonyl-CoA as substrate, triplicates): 0.27 ± 0.002 nmol TNB/min/mg protein

EGEYE [Pep-2]
Kq (bimolecular quenching constant) [4]: 9.3e+12 M⁻¹ s⁻¹
